Literature values, collected in patent US20170128482A1, “MODIFIED RELEASE PHARMACEUTICAL COMPOSITIONS OF […] RIBAVIRIN” (SANOVEL ILAC SANAYI VE TICARET A.S., priority 2014, published 2017).

Tests used:
[1] = test system: chronic hepatitis C (CHC) infections / HCV; details: ribavirin alone

| Compound | sustained virologic response [1] | HCV RNA levels ([1]; during or after therapy) | alanine aminotransferase (ALT) levels ([1]; during the course of treatment, some patients with CHC) | metabolism by Cytochrome P450 (CYP450) (Cytochrome P450 (CYP450)) |
| --- | --- | --- | --- | --- |
| 1-β-Dribofuranosyl-1H-1,2,4-triazole-3-carboxamide [Ribavirin] | did not produce any sustained virologic response | did not reduce | transiently |  |
| CC(C)OC(=O)[C@H](C)N[P@](=O)(OC[C@H]1O[C@@H](n2ccc(=O)[nH]c2=O)[C@](C)(F)[C@@H]1O)Oc1ccccc1 [Sofosbuvir, (S)-Isopropyl 2-((S)-(((2R,3R,4R,5R)-5-(2,4-dioxo3,4-dihydropyrimidin-1(2H)-yl)-4-fluoro-3-hydroxy-4-methyltetrahydrofuran-2yl)methoxy)-(phenoxy)phosphorylamino)propanoate] |  |  |  | not metabolized |
